The text below walks through data of US20060135472A1, “Use of water-soluble polymers to improve stability of diiodomethyl-para-tolylsulfone in complex matrices” (priority 2004, published 2006).

The nature of data set [1]: Stability of DITS in a generic shampoo matrix after storage at 40° C. for 8 weeks, by HPLC. In kind it is physicochemical. How it is done: All analytical data were obtained by high performance liquid chromatography (“HPLC”) analysis for content for diiodomethyl-p-tolylsulfone (DITS) and monoiodomethyl-p-tolylsulfone (MITS). Analysis was done on an Agilent HP system using a Phenomenex Bondclone 10 micron C18 reverse phase column (300×3.9 mm, 10 microns) at a flow rate of 2 mL/min, isocratic 55% acetonitrile in water for 17 min. Under these conditions DITS elutes at 3.9-4.3 min and MITS elutes at 2.9-3.3 min, depending on the shampoo matrix. […]
To a 250 mL glass jar were added 24.81 g water and 0.2526 g SL 400. The mixture was stirred vigorously for 1.5 h. Then, 1.0302 g milled AMICAL™ diiodomethyl-para-tolylsulfone was added, and the mixture was stirred for an additional 1.5 hours. After that, the premix was heated to 68° C. in a hot water bath, and a pre-blended mixture of Standapol* EA-3 (32.98 g), Standapol* A (11.16 g), and LAA (16.70 g) was added with agitation. 12.9 g of DI water was added next, and stirring was continued in the hot water bath. After 10 min, […] to adjust the pH. After an additional 10 min, the temperature of the mixture was recorded (68° C.) and the heating was stopped. The mixture was stirred on high speed for another hour, until it cooled. At that point, 0.31 g Glydant* and 0.30 g fragrance were added, and the sample was adjusted with water to 100 g formulation. Stirring continued for another hour. […]
This procedure was followed for all the polymers listed in Table 1, at the stated polymer concentration. In all cases, AMICAL™ 48 milled to a D50=2 microns was used (diiodomethyl-p-tolylsulfone content 92.5%). Detailed here is the example involving SOFTCAT™ SL 400 at 0.25% concentration.
To a 250 mL glass jar were added 24.82 g water and 0.2644 g SOFTCAT™ SL 400. The mixture was stirred vigorously for 1.5 h. Separately, in a 250 mL beaker were combined Standapol* EA-3 (33.57 g), Standapol* A (11.08 g), and LAA (16.13 g). The mixture was stirred vigorously using an overhead stirrer, and after 10 min, 1.0120 g milled DITS (AMICAL™ 48) was added, followed by 5.0 g water. The DITS-surfactant blend was stirred for 1.25 hours. After that, the DITS—surfactant blend was added with agitation to the polymer solution which had been heated to 58° C. in a hot water bath. 8.12 g of deionized water was added next, and stirring was continued in the hot water bath. After 10 min, 1 mL of a 10% aqueous citric acid solution was added to adjust the pH. After an additional 15 min, the temperature of the mixture was recorded (58° C.) and the heating was stopped. The mixture was stirred on high speed for another hour, until it cooled. At that point, 0.44 g Glydant* and 0.3 g fragrance were added, and the sample was adjusted with water to 100 g formulation. […]

For data set [2], the system named is fungi. Particulars: wide variety of fungi; cited from earlier work.
For data set [3] the following is noted: cited from earlier work.

With `Cc1ccc(S(=O)(=O)C(I)I)cc1` [DITS, diiodomethyl-para-tolylsulfone], the “DITS content after storage (HPLC)” value in data set [1] (Example 4, no polymer control, 8 week at 40° C.) came to 0.44%. In addition, in data set [1] (Example 4, no polymer control, time zero), the “DITS content at time zero (HPLC)” value turned out to be 1.02%. The same compound displayed a decomposition in data set [1] (control samples formulated without polymer, shampoo matrix, 8 weeks at 40° C.) of approximately 60%. Besides, the “% DITS left when added to surfactant blend” value in data set [1] (generic shampoo matrix, 40° C. for 8 weeks, no polymer (control, Example 4)) is 43.2%. Besides, in data set [2], the minimum inhibitory concentration result is “less than 10 ppm”. The water solubility entry in data set [3] is reported as “less than 10 ppm”.
